Data published in patent US20230079714A1, “1-AMINO-1-CYCLOPROPANECARBOXYLIC ACID FOR THINNING OF FRUITS” (priority 2021, published 2023).

Legend:
Type in all cases: in vivo
[1] = test system: plum trees (Candy Stripe and Black Majesty); assay: Plum tree thinning trial, fruit set (Chile, 2020); settings: for % Fruit Set 'Black Majesty': Black Majesty plum; for % Fruit set 'Candy Stripe': Candy Stripe plum; for % Fruit Set (Avg): average of two varieties; for reduced fruit set on average over control: white bud stage, vs untreated control
Protocol: Thinning trials were conducted Chile in 2020. Specifically, 1-amino-1-cyclopropanecarboxylic acid was prepared at 300 and 450 ppm ACC solutions. These solutions were applied as a foliar spray to two separate varieties of plum trees (i.e. Candy Stripe and Black Majesty) at the white bud stage, the full bloom stage or the petal fall stage. […] Thinning activity is expressed as fruit set (the number of large fruit per 100 flowers).

GlenGlo Peach trees [2] = assay: Peach tree thinning trial, foliage quality rating; settings: for Foliage Rating: 1 is the best and 3 is the worst
Protocol: (§1) Thinning trials were conducted in Coloma, Mich. in May 2018. Specifically, 1-amino-1-cyclopropanecarboxylic acid was prepared at 300 and 600 ppm ACC solutions with 0.05% 2-butoxyethanol, poloxalene, monopropylene glycol as a surfactant. These solutions were applied as a foliar spray to GlenGlo Peach trees at pink bud stage, full bloom and after petal fall. Three one year-old shoots were flagged for each treatment on eight replicate trees. Fruit and defoliation were evaluated four weeks after bloom applications and two weeks after the post-petal fall application. […] Thinning activity is expressed as fruit set (the number of large fruit per 100 flowers).

nectarine trees = assay: Thinning trials Greece, Italy and Spain 2020, fruit set, nectarine sites; settings: pink bud stage
Protocol: Thinning trials were conducted Greece, Italy and Spain in 2020. Specifically, 1-amino-1-cyclopropanecarboxylic acid was prepared at 200, 300, 400, 500, 800 and 1,000 ppm ACC solutions. These solutions were applied as a foliar spray to peach trees (i.e. […]

[3] = test system: peach and nectarine trees; assay: Thinning trials Greece, Italy and Spain 2020, fruit set, Italy site and average of all sites; settings: pink bud stage; for % Fruit Set (Avg): average of sites; for reduced fruit set on average over control: vs untreated control
Protocol: (§2) Thinning trials were conducted Greece, Italy and Spain in 2020. Specifically, 1-amino-1-cyclopropanecarboxylic acid was prepared at 200, 300, 400, 500, 800 and 1,000 ppm ACC solutions. These solutions were applied as a foliar spray to peach trees (i.e. Spain North, Spain South #1 and Greece #2) and nectarine trees (i.e. Spain South #1 and Greece #1) at pink bud stage. […] Thinning activity is expressed as fruit set (the number of large fruit per 100 flowers).

peach trees = assay: Thinning trials Greece, Italy and Spain 2020, fruit set, peach sites; settings: pink bud stage
Protocol: as §2

GlenGlo Peach trees [4] = assay: Peach tree thinning trial, fruit set (Coloma, Mich., 2018); settings: for reduced fruit set over control: pink bud stage, vs surfactant only control
Protocol: as §1

NC1(C(=O)O)CC1 [ACC, 1-amino-1-cyclopropanecarboxylic acid]
% Fruit Set 'Black Majesty' ([1]; 300 ppm ACC, Full Bloom Stage): 9% | % Fruit set 'Candy Stripe' ([1]; 300 ppm ACC, Full Bloom Stage): 4% | % Fruit Set (Avg) ([1]; 300 ppm ACC, Full Bloom Stage): 6.5% | % Fruit Set 'Black Majesty' ([1]; 300 ppm ACC, Petal Fall Stage): 8% | % Fruit set 'Candy Stripe' ([1]; 300 ppm ACC, Petal Fall Stage): 5% | % Fruit Set (Avg) ([1]; 300 ppm ACC, Petal Fall Stage): 6.5% | % Fruit Set 'Black Majesty' ([1]; 300 ppm ACC, White Bud Stage): 4% | % Fruit set 'Candy Stripe' ([1]; 300 ppm ACC, White Bud Stage): 1% | % Fruit Set (Avg) ([1]; 300 ppm ACC, White Bud Stage): 2.5% | reduced fruit set on average over control ([1]; 300 ppm): 21.5% | % Fruit Set 'Black Majesty' ([1]; 450 ppm ACC, Full Bloom Stage): 9% | % Fruit set 'Candy Stripe' ([1]; 450 ppm ACC, Full Bloom Stage): 4% | % Fruit Set (Avg) ([1]; 450 ppm ACC, Full Bloom Stage): 6.5% | % Fruit Set 'Black Majesty' ([1]; 450 ppm ACC, Petal Fall Stage): 8% | % Fruit set 'Candy Stripe' ([1]; 450 ppm ACC, Petal Fall Stage): 3% | % Fruit Set (Avg) ([1]; 450 ppm ACC, Petal Fall Stage): 5.5% | % Fruit Set 'Black Majesty' ([1]; 450 ppm ACC, White Bud Stage): 5% | % Fruit set 'Candy Stripe' ([1]; 450 ppm ACC, White Bud Stage): 1% | % Fruit Set (Avg) ([1]; 450 ppm ACC, White Bud Stage): 3% | reduced fruit set on average over control ([1]; 450 ppm): 21% | Foliage Rating (GlenGlo Peach trees [2]; 300 ppm ACC, After Petal Fall): 1.86 | Foliage Rating (GlenGlo Peach trees [2]; 300 ppm ACC, Full Bloom): 2.10 | Foliage Rating (GlenGlo Peach trees [2]; 300 ppm ACC, Pink Bud Stage): 1.52 | Foliage Rating (GlenGlo Peach trees [2]; 600 ppm ACC, After Petal Fall): 1.90 | Foliage Rating (GlenGlo Peach trees [2]; 600 ppm ACC, Full Bloom): 2.67 | Foliage Rating (GlenGlo Peach trees [2]; 600 ppm ACC, Pink Bud Stage): 1.95 | foliage quality (GlenGlo Peach trees [2]; application at the pink bud stage): did not significantly reduce foliage quality | % Fruit Set (Greece #1) (nectarine trees; 200 ppm ACC): 37% | % Fruit Set (Spain South #2) (nectarine trees; 200 ppm ACC): 55% | % Fruit Set (Greece #1) (nectarine trees; 300 ppm ACC): 32% | % Fruit Set (Spain South #2) (nectarine trees; 300 ppm ACC): 55% | % Fruit Set (Greece #1) (nectarine trees; 400 ppm ACC): 28% | % Fruit Set (Spain South #2) (nectarine trees; 400 ppm ACC): 48% | % Fruit Set (Greece #1) (nectarine trees; 500 ppm ACC): 25% | % Fruit Set (Spain South #2) (nectarine trees; 500 ppm ACC): 45% | % Fruit Set (Greece #1) (nectarine trees; 800 ppm ACC): 19% | % Fruit Set (Spain South #2) (nectarine trees; 800 ppm ACC): 37% | % Fruit Set (Greece #1) (nectarine trees; 1,000 ppm ACC): 16% | % Fruit Set (Spain South #2) (nectarine trees; 1,000 ppm ACC): 37% | % Fruit Set (Italy) ([3]; 200 ppm ACC): 33% | % Fruit Set (Avg) ([3]; 200 ppm ACC): 44% | reduced fruit set on average over control ([3]; 200 ppm): 18% | % Fruit Set (Italy) ([3]; 300 ppm ACC): 32% | % Fruit Set (Avg) ([3]; 300 ppm ACC): 40% | reduced fruit set on average over control ([3]; 300 ppm): 30% | % Fruit Set (Italy) ([3]; 400 ppm ACC): 34% | % Fruit Set (Avg) ([3]; 400 ppm ACC): 35% | reduced fruit set on average over control ([3]; 400 ppm): 49% | % Fruit Set (Italy) ([3]; 500 ppm ACC): 32% | % Fruit Set (Avg) ([3]; 500 ppm ACC): 33% | reduced fruit set on average over control ([3]; 500 ppm): 58% | % Fruit Set (Italy) ([3]; 800 ppm ACC): 32% | % Fruit Set (Avg) ([3]; 800 ppm ACC): 25% | reduced fruit set on average over control ([3]; 800 ppm): 108% | % Fruit Set (Italy) ([3]; 1,000 ppm ACC): 31% | % Fruit Set (Avg) ([3]; 1,000 ppm ACC): 24% | reduced fruit set on average over control ([3]; 1,000 ppm): 117% | % Fruit Set (Greece #2) (peach trees; 200 ppm ACC): 33% | % Fruit Set (Spain North) (peach trees; 200 ppm ACC): 50% | % Fruit Set (Spain South#1) (peach trees; 200 ppm ACC): 55% | % Fruit Set (Greece #2) (peach trees; 300 ppm ACC): 32% | % Fruit Set (Spain North) (peach trees; 300 ppm ACC): 44% | % Fruit Set (Spain South#1) (peach trees; 300 ppm ACC): 46% | % Fruit Set (Greece #2) (peach trees; 400 ppm ACC): 28% | % Fruit Set (Spain North) (peach trees; 400 ppm ACC): 33% | % Fruit Set (Spain South#1) (peach trees; 400 ppm ACC): 39% | % Fruit Set (Greece #2) (peach trees; 500 ppm ACC): 28% | % Fruit Set (Spain North) (peach trees; 500 ppm ACC): 25% | % Fruit Set (Spain South#1) (peach trees; 500 ppm ACC): 42% | % Fruit Set (Greece #2) (peach trees; 800 ppm ACC): 23% | % Fruit Set (Spain North) (peach trees; 800 ppm ACC): 7% | % Fruit Set (Spain South#1) (peach trees; 800 ppm ACC): 31% | % Fruit Set (Greece #2) (peach trees; 1,000 ppm ACC): 21% | % Fruit Set (Spain North) (peach trees; 1,000 ppm ACC): 7% | % Fruit Set (Spain South#1) (peach trees; 1,000 ppm ACC): 32% | % Fruit Set (GlenGlo Peach trees [4]; 300 ppm ACC foliar spray, After Petal Fall): 57% | % Fruit Set (GlenGlo Peach trees [4]; 300 ppm ACC foliar spray, Full Bloom): 10% | % Fruit Set (GlenGlo Peach trees [4]; 300 ppm ACC foliar spray, Pink Bud Stage): 10% | reduced fruit set over control (GlenGlo Peach trees [4]; 300 ppm): 310% | % Fruit Set (GlenGlo Peach trees [4]; 600 ppm ACC foliar spray, After Petal Fall): 45% | % Fruit Set (GlenGlo Peach trees [4]; 600 ppm ACC foliar spray, Full Bloom): 1% | % Fruit Set (GlenGlo Peach trees [4]; 600 ppm ACC foliar spray, Pink Bud Stage): 6% | reduced fruit set over control (GlenGlo Peach trees [4]; 600 ppm): 583% | thinning activity (GlenGlo Peach trees [4]; application after petal fall): did not provide effective thinning activity
